# Tests used:
# [1] = biological target: Tyrosine-protein kinase JAK1 (Homo sapiens, UniProt P23458); assay: Biochemical HTRF Assay Protocol: The ability of compounds to inhibit the activity of JAK1, JAK2, JAK3, and Tyk2 was measured using a recombinant purified GST-tagged catalytic domain for each enzyme (Invitrogen JAK1 #M4290, JAK2 #M4290, JAK3 #M4290, Tyk2 #M4290) in an HTRF format biochemical assay. The reactions employed a common peptide substrate, LCB-[…]-NH2 (in-house). The basic assay protocol is as follows: First, 250 nL of diluted compounds in DMSO were dispensed into the wells of a dry 384-well Black plate (Greiner #781076) using a Labcyte Echo 555 acoustic dispenser. Subsequent reagent additions employed an Agilent Bravo. Next, 18 μL of 1.11× enzyme and 1.11× substrate in 1× assay buffer (Invitrogen kinase buffer #PV3189, 2 mM DTT, 0.05% BSA) were added to the wells and shaken and then preincubated for 30 minutes at room temperature to allow compound binding to equilibrate. After equilibration, 2 μL of 10×ATP in 1× assay buffer was added to initiate the kinase reaction and the plates were shaken and then incubated at room temperature for 120 minutes. At the end of the incubation, 20 μL of 2× stop buffer (streptavidin-Dylight 650 (Thermo #84547B/100 mL), Eu-tagged pY20 antibody (Perkin Elmer #AD0067), EDTA, HEPES, and Triton) was added to quench the reaction. Plates were shaken and centrifuged and then incubated 60 minutes at room temperature and then read on a Perkin Elmer Envision (λex=337 nm, λem=665 and 615 nm, TRF delay time=20 μs). HTRF signal=10,000*665 nm reading/615 nm reading. After normalization to untreated controls, the percent inhibition of the HTRF signal at each compound concentration was calculated.
# [2] = biological target: Tyrosine-protein kinase JAK2 (Homo sapiens, UniProt O60674); assay: Biochemical HTRF Assay Protocol: The ability of compounds to inhibit the activity of JAK1, JAK2, JAK3, and Tyk2 was measured using a recombinant purified GST-tagged catalytic domain for each enzyme (Invitrogen JAK1 #M4290, JAK2 #M4290, JAK3 #M4290, Tyk2 #M4290) in an HTRF format biochemical assay. […] Subsequent reagent additions employed an Agilent Bravo. […] After equilibration, 2 μL of 10×ATP in 1× assay buffer was added to initiate the kinase reaction and the plates were shaken and then incubated at room temperature for 120 minutes. […] After normalization to untreated controls, the percent inhibition of the HTRF signal at each compound concentration was calculated.
# Tyrosine-protein kinase JAK2, sequence (O60674 whole entry, the tested form may be a part): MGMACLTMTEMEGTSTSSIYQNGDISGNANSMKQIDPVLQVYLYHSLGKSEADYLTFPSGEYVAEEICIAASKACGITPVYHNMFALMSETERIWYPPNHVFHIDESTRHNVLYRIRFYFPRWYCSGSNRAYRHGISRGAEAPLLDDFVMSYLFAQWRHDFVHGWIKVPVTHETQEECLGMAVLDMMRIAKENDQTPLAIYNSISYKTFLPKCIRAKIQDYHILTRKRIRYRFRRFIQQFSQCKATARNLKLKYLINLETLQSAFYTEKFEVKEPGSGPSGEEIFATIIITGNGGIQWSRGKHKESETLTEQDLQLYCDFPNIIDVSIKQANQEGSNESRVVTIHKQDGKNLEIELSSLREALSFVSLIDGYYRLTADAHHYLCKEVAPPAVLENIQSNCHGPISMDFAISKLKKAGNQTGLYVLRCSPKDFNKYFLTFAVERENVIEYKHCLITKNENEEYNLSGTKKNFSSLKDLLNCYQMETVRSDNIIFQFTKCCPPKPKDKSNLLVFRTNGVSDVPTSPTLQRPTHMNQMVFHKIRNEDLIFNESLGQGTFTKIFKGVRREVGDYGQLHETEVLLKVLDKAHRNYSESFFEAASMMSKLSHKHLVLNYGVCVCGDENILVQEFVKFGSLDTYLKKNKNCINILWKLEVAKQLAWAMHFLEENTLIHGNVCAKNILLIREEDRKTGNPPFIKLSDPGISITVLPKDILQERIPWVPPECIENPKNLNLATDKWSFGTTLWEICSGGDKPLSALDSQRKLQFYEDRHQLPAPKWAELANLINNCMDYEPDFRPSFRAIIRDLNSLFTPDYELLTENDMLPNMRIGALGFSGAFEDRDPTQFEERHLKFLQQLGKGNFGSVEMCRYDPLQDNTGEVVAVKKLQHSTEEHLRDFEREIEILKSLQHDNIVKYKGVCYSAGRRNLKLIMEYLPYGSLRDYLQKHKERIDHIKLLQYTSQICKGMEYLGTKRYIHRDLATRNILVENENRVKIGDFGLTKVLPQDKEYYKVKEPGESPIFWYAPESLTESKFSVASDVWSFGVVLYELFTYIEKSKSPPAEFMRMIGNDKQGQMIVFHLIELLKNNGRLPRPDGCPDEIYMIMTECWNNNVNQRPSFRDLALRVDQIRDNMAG
# Tyrosine-protein kinase JAK1, sequence (P23458 whole entry, the tested form may be a part): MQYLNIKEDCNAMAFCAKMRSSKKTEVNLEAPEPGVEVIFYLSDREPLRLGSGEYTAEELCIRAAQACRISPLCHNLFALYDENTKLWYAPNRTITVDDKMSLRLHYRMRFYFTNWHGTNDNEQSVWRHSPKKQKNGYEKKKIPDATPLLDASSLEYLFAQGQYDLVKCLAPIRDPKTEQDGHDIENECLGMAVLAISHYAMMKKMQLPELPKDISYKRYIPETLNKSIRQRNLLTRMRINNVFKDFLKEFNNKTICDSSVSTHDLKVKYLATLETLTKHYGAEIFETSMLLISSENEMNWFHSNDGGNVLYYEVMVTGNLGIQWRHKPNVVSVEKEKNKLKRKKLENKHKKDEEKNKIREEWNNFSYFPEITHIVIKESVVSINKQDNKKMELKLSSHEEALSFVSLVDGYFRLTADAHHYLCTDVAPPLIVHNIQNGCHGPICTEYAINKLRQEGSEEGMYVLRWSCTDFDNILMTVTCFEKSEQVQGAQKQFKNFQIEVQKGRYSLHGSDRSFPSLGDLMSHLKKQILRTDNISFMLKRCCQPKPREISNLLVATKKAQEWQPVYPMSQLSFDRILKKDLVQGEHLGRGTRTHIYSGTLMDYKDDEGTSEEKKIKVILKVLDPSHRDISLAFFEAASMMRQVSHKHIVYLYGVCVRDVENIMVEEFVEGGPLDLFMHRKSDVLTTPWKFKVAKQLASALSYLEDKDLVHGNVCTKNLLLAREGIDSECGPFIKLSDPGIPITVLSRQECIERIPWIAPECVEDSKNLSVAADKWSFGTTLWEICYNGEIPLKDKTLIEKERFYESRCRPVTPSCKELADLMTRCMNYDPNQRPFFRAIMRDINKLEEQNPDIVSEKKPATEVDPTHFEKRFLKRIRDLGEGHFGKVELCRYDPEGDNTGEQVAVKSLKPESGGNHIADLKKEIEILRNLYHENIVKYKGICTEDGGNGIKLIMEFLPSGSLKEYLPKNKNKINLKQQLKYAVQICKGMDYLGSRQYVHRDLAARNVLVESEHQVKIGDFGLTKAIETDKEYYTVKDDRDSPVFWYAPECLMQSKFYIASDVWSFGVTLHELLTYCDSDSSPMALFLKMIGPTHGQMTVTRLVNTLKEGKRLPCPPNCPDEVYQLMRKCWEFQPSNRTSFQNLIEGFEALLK
compound,measurement,setting,value
CS(=O)(=O)c1ccc(Nc2nn([C@@H]3CCC[C@H]3C#N)c3cc[nH]c(=O)c23)cc1,IC50,[1],4.7 nM
Cc1cc(Nc2nn([C@H]3CCCC[C@@H]3C#N)c3cc[nH]c(=O)c23)ccc1C(=O)N1CCC(F)(F)CC1,IC50,[1],0.32 nM
same,IC50,[2],0.37 nM
CN(C)S(=O)(=O)c1ccc(Nc2nn([C@H]3CCC[C@@H]3C#N)c3cc[nH]c(=O)c23)cc1,IC50,[1],0.11 nM
same,IC50,[2],0.3 nM
N#C[C@H]1C[C@H](O)CC[C@@H]1n1nc(Nc2ccc(C(F)(F)F)cc2)c2c(=O)[nH]ccc21,IC50,[1],0.48 nM

# Source: ChEMBL document CHEMBL5726283, “Cycloalkyl nitrile pyrazolo pyridones as Janus kinase inhibitors” (2017)
